# Data: US8044069B2, “Compounds as calcium channel blockers” (Abbott Laboratories, priority 2008, dated 2011)
# Biological target: human Cav2.2 (Homo sapiens, UniProt Q00975)
# Assay: Assessment of calcium channel activity using FLIPR (Ca2+ influx in IMR32 cells)
# Type: cell-based
# Details: IMR32 cells endogenously expressing human Cav2.2; 60 minute pre-incubation; 2 μM nifedipine; depolarized with 80 mM KCl, 5 mM CaCl2
# In short: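 IMR32 cells were dye-loaded and pre-incubated 60 min with compound (10 μM to 0.1 nM) in 1.3 mM CaCl2 plus 2 μM nifedipine to block L-type channels. Cells were then depolarized with 80 mM KCl while Ca2+ was raised to 5 mM, and FLIPR read the influx. IC50 came from a sigmoidal fit of % inhibition versus the no-inhibitor control.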
# Sequence of human Cav2.2 (Q00975 whole entry): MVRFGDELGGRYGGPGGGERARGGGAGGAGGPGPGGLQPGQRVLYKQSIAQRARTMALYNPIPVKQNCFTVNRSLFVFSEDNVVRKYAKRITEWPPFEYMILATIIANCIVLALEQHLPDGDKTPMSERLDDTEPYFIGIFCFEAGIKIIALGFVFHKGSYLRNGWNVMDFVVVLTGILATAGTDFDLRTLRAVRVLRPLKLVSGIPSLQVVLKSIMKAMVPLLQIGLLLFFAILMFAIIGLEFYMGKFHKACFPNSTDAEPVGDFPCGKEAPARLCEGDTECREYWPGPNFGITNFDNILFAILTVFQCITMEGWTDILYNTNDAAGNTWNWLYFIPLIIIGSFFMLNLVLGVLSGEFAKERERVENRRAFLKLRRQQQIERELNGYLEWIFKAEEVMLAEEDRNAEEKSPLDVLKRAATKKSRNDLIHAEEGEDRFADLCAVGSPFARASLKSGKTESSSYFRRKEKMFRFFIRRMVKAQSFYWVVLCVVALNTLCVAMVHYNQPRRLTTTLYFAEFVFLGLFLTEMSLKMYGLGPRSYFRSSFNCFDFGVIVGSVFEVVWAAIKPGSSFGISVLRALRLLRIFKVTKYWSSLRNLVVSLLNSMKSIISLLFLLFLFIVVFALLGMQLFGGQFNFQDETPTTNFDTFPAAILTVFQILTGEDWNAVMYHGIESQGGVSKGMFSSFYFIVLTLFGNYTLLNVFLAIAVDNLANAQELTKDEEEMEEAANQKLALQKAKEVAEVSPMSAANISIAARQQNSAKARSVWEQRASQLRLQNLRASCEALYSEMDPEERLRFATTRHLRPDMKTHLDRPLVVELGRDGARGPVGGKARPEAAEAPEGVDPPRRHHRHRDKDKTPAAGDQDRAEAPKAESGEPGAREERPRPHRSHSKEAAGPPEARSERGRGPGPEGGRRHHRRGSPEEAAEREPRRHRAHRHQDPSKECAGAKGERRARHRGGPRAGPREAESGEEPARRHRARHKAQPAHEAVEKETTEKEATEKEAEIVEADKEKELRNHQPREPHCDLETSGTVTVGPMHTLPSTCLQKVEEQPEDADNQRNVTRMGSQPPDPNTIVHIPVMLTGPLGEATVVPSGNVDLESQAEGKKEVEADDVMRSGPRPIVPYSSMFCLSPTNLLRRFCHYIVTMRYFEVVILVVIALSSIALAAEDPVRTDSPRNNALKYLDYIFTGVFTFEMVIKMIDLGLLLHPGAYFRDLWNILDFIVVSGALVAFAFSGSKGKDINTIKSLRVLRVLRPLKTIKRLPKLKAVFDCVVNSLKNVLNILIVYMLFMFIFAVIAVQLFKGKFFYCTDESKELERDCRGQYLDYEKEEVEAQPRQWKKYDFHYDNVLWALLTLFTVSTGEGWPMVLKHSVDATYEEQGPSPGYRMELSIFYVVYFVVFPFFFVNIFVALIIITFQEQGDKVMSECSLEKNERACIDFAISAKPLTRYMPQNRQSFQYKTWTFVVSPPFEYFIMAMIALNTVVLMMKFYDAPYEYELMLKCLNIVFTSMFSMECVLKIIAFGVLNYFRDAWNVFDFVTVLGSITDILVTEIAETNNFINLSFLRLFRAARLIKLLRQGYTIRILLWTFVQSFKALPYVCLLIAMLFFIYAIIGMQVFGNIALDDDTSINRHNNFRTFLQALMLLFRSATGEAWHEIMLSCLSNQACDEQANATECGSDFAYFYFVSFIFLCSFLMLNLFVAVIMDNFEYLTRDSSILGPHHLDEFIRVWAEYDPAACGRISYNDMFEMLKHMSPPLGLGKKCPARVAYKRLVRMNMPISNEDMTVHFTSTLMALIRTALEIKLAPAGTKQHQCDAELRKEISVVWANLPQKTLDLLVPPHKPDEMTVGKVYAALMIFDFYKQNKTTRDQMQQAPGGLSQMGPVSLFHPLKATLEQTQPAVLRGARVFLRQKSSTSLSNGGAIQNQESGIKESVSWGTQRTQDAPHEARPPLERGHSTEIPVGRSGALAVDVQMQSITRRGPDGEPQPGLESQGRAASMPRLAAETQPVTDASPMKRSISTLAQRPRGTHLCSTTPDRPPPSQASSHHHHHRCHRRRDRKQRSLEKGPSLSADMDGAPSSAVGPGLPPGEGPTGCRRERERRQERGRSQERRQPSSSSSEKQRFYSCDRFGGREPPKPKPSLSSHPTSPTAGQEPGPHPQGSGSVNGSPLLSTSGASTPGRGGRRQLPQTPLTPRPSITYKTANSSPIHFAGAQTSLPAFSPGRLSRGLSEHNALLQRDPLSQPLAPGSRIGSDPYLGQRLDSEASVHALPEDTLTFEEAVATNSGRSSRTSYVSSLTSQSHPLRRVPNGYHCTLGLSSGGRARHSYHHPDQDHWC
# Sequence of human Cav2.2 (P54289 25-951 partner limits assumed): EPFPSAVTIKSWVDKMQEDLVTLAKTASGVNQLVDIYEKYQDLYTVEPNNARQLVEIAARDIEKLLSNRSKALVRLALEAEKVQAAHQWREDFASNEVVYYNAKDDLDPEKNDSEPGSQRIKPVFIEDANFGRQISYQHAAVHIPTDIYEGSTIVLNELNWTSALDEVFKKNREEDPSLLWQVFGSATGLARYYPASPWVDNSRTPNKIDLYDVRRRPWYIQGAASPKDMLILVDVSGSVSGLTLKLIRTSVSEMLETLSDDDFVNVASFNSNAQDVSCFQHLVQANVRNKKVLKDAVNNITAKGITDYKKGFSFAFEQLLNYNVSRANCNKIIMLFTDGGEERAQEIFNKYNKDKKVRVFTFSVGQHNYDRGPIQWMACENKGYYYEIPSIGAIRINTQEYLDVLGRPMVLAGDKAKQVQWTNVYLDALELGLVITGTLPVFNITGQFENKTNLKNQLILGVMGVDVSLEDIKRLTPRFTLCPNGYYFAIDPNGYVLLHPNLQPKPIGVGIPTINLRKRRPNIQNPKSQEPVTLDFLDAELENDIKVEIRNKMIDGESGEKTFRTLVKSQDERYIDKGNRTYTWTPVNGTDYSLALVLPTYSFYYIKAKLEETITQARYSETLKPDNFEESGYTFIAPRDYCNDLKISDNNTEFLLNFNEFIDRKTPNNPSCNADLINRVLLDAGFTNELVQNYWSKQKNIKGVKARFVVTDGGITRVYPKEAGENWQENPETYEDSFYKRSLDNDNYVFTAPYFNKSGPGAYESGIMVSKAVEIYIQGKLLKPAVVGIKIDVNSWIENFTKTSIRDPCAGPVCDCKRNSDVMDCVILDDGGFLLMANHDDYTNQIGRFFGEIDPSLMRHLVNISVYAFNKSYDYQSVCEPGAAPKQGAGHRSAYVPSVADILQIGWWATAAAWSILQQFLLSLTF
# Sequence of human Cav2.2 (P54289 952-1103 partner limits assumed): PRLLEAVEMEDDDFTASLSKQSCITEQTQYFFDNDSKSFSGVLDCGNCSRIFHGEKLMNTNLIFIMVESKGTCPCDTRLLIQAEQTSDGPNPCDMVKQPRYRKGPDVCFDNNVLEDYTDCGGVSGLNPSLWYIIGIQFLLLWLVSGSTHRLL
# Sequence of human Cav2.2 (P54284 whole entry partner): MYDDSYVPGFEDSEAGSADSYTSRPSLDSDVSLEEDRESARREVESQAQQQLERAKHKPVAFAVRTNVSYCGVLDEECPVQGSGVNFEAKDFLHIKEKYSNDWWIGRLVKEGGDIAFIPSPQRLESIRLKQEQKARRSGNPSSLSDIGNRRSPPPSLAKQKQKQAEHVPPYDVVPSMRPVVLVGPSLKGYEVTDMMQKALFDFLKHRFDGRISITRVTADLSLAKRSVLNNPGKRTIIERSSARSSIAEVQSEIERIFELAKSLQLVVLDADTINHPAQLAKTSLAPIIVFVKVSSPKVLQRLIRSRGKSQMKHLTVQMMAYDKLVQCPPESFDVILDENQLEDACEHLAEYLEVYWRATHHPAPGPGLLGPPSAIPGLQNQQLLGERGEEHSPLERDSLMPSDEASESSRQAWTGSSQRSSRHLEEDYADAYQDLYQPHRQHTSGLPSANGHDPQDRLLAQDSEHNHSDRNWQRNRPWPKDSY
row,IC50,Compound
1,4.48 µM,"O=C(CN1CCC(c2ccccc2)(c2ccccc2)C1=O)Nc1cccc(C(F)(F)F)n1 [Example 247, 2-(2-oxo-3,3-diphenylpyrrolidin-1-yl)-N-[6-(trifluoromethyl)pyridin-2-yl]acetamide]"
2,8.71 µM,"O=C1N(Cc2nc(-c3ccc(C(F)(F)F)cc3)no2)CCC1(c1ccccc1)c1ccccc1 [Example 62, 3,3-diphenyl-1-({3-[4-(trifluoromethyl)phenyl]-1,2,4-oxadiazol-5-yl}methyl)pyrrolidin-2-one]"
3,2.13 µM,"O=C(CN1CCC(c2ccccc2)(c2ccccc2)C1=O)N1CCc2ccc(C(F)(F)F)cc2C1 [Example 55, 1-{2-oxo-2-[7-(trifluoromethyl)-3,4-dihydroisoquinolin-2(1H)-yl]ethyl}-3,3-diphenylpyrrolidin-2-one]"
4,7.73 µM,"O=C(CN1CCCC(c2ccccc2)C1=O)N1Cc2ccc(C(F)(F)F)cc2C1 (stereo not drawn) [Example 178, 1-{2-oxo-2-[5-(trifluoromethyl)-1,3-dihydro-2H-isoindol-2-yl]ethyl}-3-phenylpiperidin-2-one]"
5,8.84 µM,"O=C(CN1CCC(c2ccccc2)(c2ccccc2)C1=O)Nc1ccc(C(F)(F)F)nc1 [Example 248, 2-(2-oxo-3,3-diphenylpyrrolidin-1-yl)-N-[6-(trifluoromethyl)pyridin-3-yl]acetamide]"
6,0.77 µM,"CC(c1cccc(C(F)(F)F)c1)N1CCN(C(=O)CN2CCC(c3ccccc3)(c3ccccc3)C2=O)CC1 (stereo not drawn) [Example 44, 1-[2-oxo-2-(4-{1-[3-(trifluoromethyl)phenyl]ethyl}piperazin-1-yl)ethyl]-3,3-diphenylpyrrolidin-2-one]"
7,5.48 µM,"O=C1N(S(=O)(=O)c2cccc(C(F)(F)F)c2)CCC1(c1ccccc1)c1ccccc1 [Example 144, 3,3-diphenyl-1-{[3-(trifluoromethyl)phenyl]sulfonyl}pyrrolidin-2-one]"
8,3.73 µM,"O=C(CN1CCCC(c2ccccc2)(c2ccccc2)C1=O)N1CCC(Oc2cccc(Cl)c2)CC1 [Example 159, 1-{2-[4-(3-chlorophenoxy)piperidin-1-yl]-2-oxoethyl}-3,3-diphenylpiperidin-2-one]"
9,0.86 µM,"O=C(CN1CCCC(c2ccccc2)(c2ccccc2)C1=O)NC1CN(Cc2cccc(C(F)(F)F)c2F)C1 [Example 201, N-{1-[2-fluoro-3-(trifluoromethyl)benzyl]azetidin-3-yl}-2-(2-oxo-3,3-diphenylpiperidin-1-yl)acetamide]"
10,2.76 µM,"C[C@@H]1CN(C(c2ccccc2)c2ccccc2)CCN1C(=O)CN1CCC(c2ccccc2)(c2ccccc2)C1=O [Example 49, 1-{2-[(2R)-4-benzhydryl-2-methylpiperazin-1-yl]-2-oxoethyl}-3,3-diphenylpyrrolidin-2-one]"
11,3.88 µM,"O=C(CN1CCCC(c2ccc(F)cc2)(c2ccc(F)cc2)C1=O)N1CCC(c2ccccc2)(c2ccccc2)CC1 [Example 173, 1-[2-(4,4-diphenylpiperidin-1-yl)-2-oxoethyl]-3,3-bis(4-fluorophenyl)piperidin-2-one]"
12,2.55 µM,"O=C(CN1CCC(c2ccc(F)cc2)(c2ccc(F)cc2)C1=O)N1CCc2ccc(C(F)(F)F)cc2C1 [Example 259, 3,3-bis(4-fluorophenyl)-1-{2-oxo-2-[7-(trifluoromethyl)-3,4-dihydroisoquinolin-2(1H)-yl]ethyl}pyrrolidin-2-one]"
13,3.07 µM,"O=C(CN1CCCC(c2ccccc2)(c2ccccc2)C1=O)N1CC(c2ccc(C(F)(F)F)cc2)C1 [Example 240, 1-(2-oxo-2-{3-[4-(trifluoromethyl)phenyl]azetidin-1-yl}ethyl)-3,3-diphenylpiperidin-2-one]"
14,1.76 µM,"COc1cc(CN2CCN(CCN3CCC(c4ccc(F)cc4)(c4ccc(F)cc4)C3=O)CC2)cc(OC)c1OC [Example 109, 3,3-bis(4-fluorophenyl)-1-{2-[4-(3,4,5-trimethoxybenzyl)piperazin-1-yl]ethyl}pyrrolidin-2-one]"
15,1.84 µM,"C[C@@H]1CN(C(=O)c2cccc(S(=O)(=O)N3CCC(c4ccccc4)(c4ccccc4)C3=O)c2)C[C@H](C)O1 [Example 147, 1-[(3-{[cis-2,6-dimethylmorpholin-4-yl]carbonyl}phenyl)sulfonyl]-3,3-diphenylpyrrolidin-2-one]"
16,1.53 µM,"CN(CCCN1CCC(c2ccc(F)cc2)(c2ccc(F)cc2)C1=O)C1Cc2ccccc2C1 [Example 114, 1-{3-[2,3-dihydro-1H-inden-2-yl(methyl)amino]propyl}-3,3-bis(4-fluorophenyl)pyrrolidin-2-one]"
17,2.22 µM,"O=C(CN1CCC(c2ccccc2)(c2ccccc2)C1=O)N1CCN(Cc2ccc(F)cc2)CC1 [Example 38, 1-{2-[4-(4-fluorobenzyl)piperazin-1-yl]-2-oxoethyl}-3,3-diphenylpyrrolidin-2-one]"
18,2.16 µM,"O=C(CN1CCC(c2ccccc2)(c2ccccc2)C1=O)N1CCC(c2ccc(F)cc2)(c2ccc(F)cc2)C1 [Example 203, 1-{2-[3,3-bis(4-fluorophenyl)pyrrolidin-1-yl]-2-oxoethyl}-3,3-diphenylpyrrolidin-2-one]"
19,3.44 µM,"O=C1N(CCN2CCc3ccc(C(F)(F)F)cc3C2)CCC1(c1ccccc1)c1ccccc1 [Example 67, 3,3-diphenyl-1-{2-[7-(trifluoromethyl)-3,4-dihydroisoquinolin-2(1H)-yl]ethyl}pyrrolidin-2-one]"
20,3.87 µM,"O=C(CN1CCC(c2ccccc2)(c2ccccc2)C1=O)NCCc1cccc(C(F)(F)F)c1 [Example 10, 2-(2-oxo-3,3-diphenylpyrrolidin-1-yl)-N-{2-[3-(trifluoromethyl)phenyl]ethyl}acetamide]"
21,12.1 µM,"O=C(CN1CCC(c2ccc(F)cc2)C1=O)N1Cc2ccc(F)cc2C1 (stereo not drawn) [Example 227, 1-[2-(5-fluoro-1,3-dihydro-2H-isoindol-2-yl)-2-oxoethyl]-3-(4-fluorophenyl)pyrrolidin-2-one]"
22,6.48 µM,"O=C(CN1CCC(c2ccccc2)(c2ccccc2)C1=O)Nc1ncc(C(F)(F)F)cc1Cl [Example 249, N-[3-chloro-5-(trifluoromethyl)pyridin-2-yl]-2-(2-oxo-3,3-diphenylpyrrolidin-1-yl)acetamide]"
23,1.25 µM,"O=C1N(CCCN2CCN(c3cccc(C(F)(F)F)c3)CC2)CCCC1(c1ccccc1)c1ccccc1 [Example 140, 3,3-diphenyl-1-(3-{4-[3-(trifluoromethyl)phenyl]piperazin-1-yl}propyl)piperidin-2-one]"
24,18.3 µM,"O=C1N(S(=O)(=O)c2ccc(C(F)(F)F)cc2Cl)CCC1(c1ccccc1)c1ccccc1 [Example 151, 1-{[2-chloro-4-(trifluoromethyl)phenyl]sulfonyl}-3,3-diphenylpyrrolidin-2-one]"
25,0.52 µM,"O=C(CN1CCC(c2ccccc2)(c2ccccc2)C1=O)N1CCN(Cc2ccc(Cl)cc2Cl)CC1 [Example 43, 1-{2-[4-(2,4-dichlorobenzyl)piperazin-1-yl]-2-oxoethyl}-3,3-diphenylpyrrolidin-2-one]"
26,3.46 µM,"CN(CCCN1CCCC(c2ccccc2)(c2ccccc2)C1=O)CCc1ccccc1 [Example 117, 1-{3-[methyl(2-phenylethyl)amino]propyl}-3,3-diphenylpiperidin-2-one]"
27,1.03 µM,"O=C(CN1CCCC(c2ccccc2)(c2ccccc2)C1=O)NC1CN(C(c2ccccc2)c2ccccc2)C1 [Example 176, N-(1-benzhydrylazetidin-3-yl)-2-(2-oxo-3,3-diphenylpiperidin-1-yl)acetamide]"
